For one experiment, the system named is Burkholderia A396. The experiment is classed as cell-based, Burkholderia sp. A396. Particulars: 72-hour incubation at 25° C. The protocol: Antibiotic susceptibility of Burkholderia A396 is tested using antibiotic disks on Muller-Hinton medium as described in PML Microbiological's technical data sheet #535.
For the next experiment, the system named is B. cepacia complex. Particulars: 2,621 strains in B. cepacia complex; cited from earlier work.
For another experiment, the system named is Lygus hesperus. Put plainly: 12 well plate treated green beans bioassay, Lygus hesperus late 2nd/early 3rd instar. Particulars: green beans dipped in 0.25 mg/mL, scored at 24, 48 and 120 hours. It is filed as in vivo. The method, then: The insecticidal activity of the four compounds, templamide A, templamide B, FR901465 & FR901228 isolated from Burkholderia were tested in a laboratory assay using a 12 well plate with treated green beans bioassay system. The compound was dissolved in 100% ethanol to concentrations of […] and 500 μL of this sample was added to 3.5 mL of water to make a total volume of 4 mL containing 0.25 mg/mL concentration of the compound. Green beans were washed earlier in bleach solution and then sat in water to rinse. Beans were dried before using and then were cut with scissors to fit into wells of 12-well plate. With the help of forceps the beans were dunked into a 15 mL plastic falcon tube containing each treatment and then submerged in treatment for exactly one min. one bean part was put into each well and then individual late 2nd/early 3rd instar Lygus hesperus, were placed in wells with help of brush. Plate sealer was used to cover tray and hole poked into the plate sealer for aeration. The numbers of Lygus/well were counted and plates were placed on brench top. Larvae were scored at 24, 48 and 120 hours after application. […] The positive control used in this testing was Avid (Avemectin) at the rate of 13 μL/10 mL.

The subject of experiment [1] is Chlamydomonas reinhardtii. In words: Control of Chlamydomonas reinhardtii by purified compounds, fluorescence at 680 nm. Particulars: 72 hours. It is filed as cell-based. The method, then: Purified compounds from Burkholderia sp. fermentation broth was tested for algaicidal activity against Chlamydomonas reinhardtii. An increasing volume of the purified compounds (20 mg/mL in ethanol) was added to a clear 48 well polystyrene plate with 750 micro liters of the specified algae growing. Each treatment was done in two replicates and the solvent used as a negative control. The plate was closed with a lid and incubated for 72 hours under constant light at room temperature. After 72 hours the fluorescence (at 680 nm) of the suspension in each well was measured using a SpectraMax M2 plate reader, and the reduction in fluorescence compared with the negative control was converted into percent control of algal growth. Each sample was visually compared to the negative control; a well that was visually clearer than the negative control was scored as active. […] Tests were run in two replicates and %. Control was calculated as a reduction of fluorescence at 680 nm compared with the negative control. Each sample was visually compared to the negative control; a well that was visually clearer than the negative control was scored as active.

In experiment [2] the test system is Two Spotted Spidermite (TSM). In words: Control of two spotted spidermite (TSM) in strawberry, field data. It is filed as in vivo. The following applies: 6 oz./acre. The method, then: The efficacies of five traditional chemistry-derived and MBI 206 were evaluated for TSM control under field conditions. ‘Strawberry Festival’ transplants were set in the field in plastic mulched beds, 13 inches high and 27 inches across the top, and with 4 ft bed spacing. Overhead irrigation was applied for 10 days after setting to aid in establishment of the transplants. Trickle irrigation was used for the remainder of the experiment. Each 12.5-ft. plot consisted of 20 plants in two ten-plant rows per bed. Plots were infested from a laboratory colony in four sessions with 10 to 20 motile TSM, per plant. Each session accomplished the infestation of one block of the experiment. The experiment consisted of treatments of various rates and schedules of application of miticides, some combined with an adjuvant, and a non-treated check. Treatments were replicated four times in a RCB design. Savey and Acramite treatments were applied before TSM densities reached threshold levels (6 January); the remainder of the treatment programs began 2 wks later. Treatments were applied using a hand-held sprayer with a spray wand outfitted with a nozzle containing a 45-degree core and a number four disc.
The sprayer was pressurized by CO2, to 40 psi, and calibrated to deliver 100 gal per acre. Pre-treatment samples were taken on Day 1 and sampling continued weekly through 2 wks after the last application of treatments. Samples consisted of ten randomly selected leaflets per plot and were collected from the middle one-third stratum of the plants. Samples were transported to the laboratory where motile and egg TSM were brushed from the leaflets onto rotating sticky discs and counted on 1/10 of the disc surface to estimate average numbers per leaflet. Distinctions could not be made between viable and non-viable eggs, thus total eggs were recorded.

Where [3] appears, read: 5 μL of sample (20 mg/mL in ethanol) per 750 μL of algae.
The mark [4] stands for this setting: 5 μL of sample per 750 μL of algae.
Where [5] appears, read: 11 μL of sample (20 mg/mL in ethanol) per 750 μL of algae.
Where [6] appears, read: 11 μL of sample per 750 μL of algae.
The mark [7] stands for this setting: 22.5 μL of sample (20 mg/mL in ethanol) per 750 μL of algae.
[8] abbreviates: 22.5 μL of sample per 750 μL of algae, well visually clearer than negative control scored as active.

Several values for one entry are separate records, joined by “and”; a condition that tells them apart may be missing. Equal entries are not always repeated. Where two headings read alike, the source gives them in different places.

The term mortality denotes the percentage killed.

For `CC1(C)S[C@@H]2[C@H](NC(=O)[C@H](N)c3ccccc3)C(=O)N2[C@H]1C(=O)O` [Ampicillin], in the experiment on Burkholderia A396 (disk 10 μg), the Susceptible entry is “−”.
As for `CO/N=C(\C(=O)N[C@@H]1C(=O)N2C(C(=O)O)=C(COC(N)=O)CS[C@H]12)c1ccco1` [Cefuroxime], in the experiment with Burkholderia A396 (disk 30 μg), the Susceptible entry was “−”.
Consider `O=C(N[C@H](CO)[C@H](O)c1ccc([N+](=O)[O-])cc1)C(Cl)Cl` [Chloramphenicol], for which, in the experiment with Burkholderia A396 (disk 30 μg), the Susceptible result is “++”. In the experiment with B. cepacia complex, the “share of strains susceptible” value is 15%.
Regarding `O=C(O)c1cn(C2CC2)c2cc(N3CCNCC3)c(F)cc2c1=O` [Ciprofloxacin], in the experiment on Burkholderia A396 (disk 5 μg), the Susceptible entry was “++”. For the same molecule, the “share of strains susceptible” value in the experiment on B. cepacia complex is recorded as 5%.
For `CC[C@H]1OC(=O)[C@H](C)[C@@H](O[C@H]2C[C@@](C)(OC)[C@@H](O)[C@H](C)O2)[C@H](C)[C@@H](O[C@@H]2O[C@H](C)C[C@H](N(C)C)[C@H]2O)[C@](C)(O)C[C@@H](C)C(=O)[C@H](C)[C@@H](O)[C@]1(C)O` [Erythromycin], the Susceptible result with Burkholderia A396 (disk 15 μg) is on record as “−”.
Consider `C[C@@H](O)[C@H]1C(=O)N2C(C(=O)O)=C(SCCN=CN)C[C@H]12` [Imipenem], for which, in the experiment with Burkholderia A396 (disk 10 μg), the Susceptible result was “+++”.
Consider `NC[C@H]1O[C@H](O[C@H]2[C@H](O)[C@@H](O[C@H]3O[C@H](CO)[C@@H](O)[C@H](N)[C@H]3O)[C@H](N)C[C@@H]2N)[C@H](O)[C@@H](O)[C@@H]1O` [Kanamycin], for which the Susceptible result in the experiment on Burkholderia A396 (disk 30 μg) was “+++”.
Consider `CN(C)[C@@H]1C(O)=C(C(N)=O)C(=O)[C@@]2(O)C(O)=C3C(=O)c4c(O)cccc4[C@@](C)(O)[C@H]3[C@H](O)[C@@H]12` [Oxytetracycline], for which the Susceptible result with Burkholderia A396 (disk 30 μg) was “−”.
For `CCN1CCN(C(=O)N[C@@H](C(=O)N[C@@H]2C(=O)N3[C@@H]2SC(C)(C)[C@@H]3C(=O)O)c2ccccc2)C(=O)C1=O` [Piperacillin], the Susceptible result in the experiment on Burkholderia A396 (disk 100 μg) is given as “+++”.
On to `[H]/N=C(/N)N[C@H]1[C@H](O)[C@@H](O)[C@H](O[C@@H]2O[C@@H](C)[C@](O)(C=O)[C@H]2O[C@@H]2O[C@@H](CO)[C@H](O)[C@@H](O)[C@@H]2NC)[C@@H](N/C(N)=N\[H])[C@@H]1O` [Streptomycin], for which, in the experiment on Burkholderia A396 (disk 10 μg), the Susceptible result is “−”.
Turning to `CCC(=O)OC(C)/C=C\C(=O)NC1CC(C)C(C/C=C(C)/C=C/C2OC(C)(O)C(O)C(O)(CO)C2O)OC1C` (centres unmarked) [Templamide A], the mortality entry with Lygus hesperus is “inactive”. Also, the “% Control” value was −67.61% in experiment [1] (setting [3]), −21.16% in experiment [1] (setting [5]) and −151.6% in experiment [1] (setting [7]). Also, the Visual result in experiment [1] (setting [4]), in experiment [1] (setting [6]) and in experiment [1] (setting [8]) was “Not Active” each time.
In the experiment with Lygus hesperus (Lygus hesperus), `CCC(=O)OC(C)/C=C\C(=O)NC1CC(C)C(C/C=C(C)/C=C/C2OC(C)(O)C(O)C3(CO3)C2O)OC1C` (centres unmarked) [Templamide B] had a mortality at 250 µg/mL of 69.2%. In addition, the “% Control” value came out at 95.05% in experiment [1] (setting [3]), 99.34% in experiment [1] (setting [5]) and 98.3% in experiment [1] (setting [7]). Besides, the Visual result in experiment [1] (setting [4]), in experiment [1] (setting [6]) and in experiment [1] (setting [8]) was “Active” each time.
As for `COC(=O)c1nc(CC(C)C)oc1-c1c[nH]c2ccccc12` [Templazole A, templazole A], the “% Control” value in experiment [1] (setting [3]) was 99.18% and 98.69%; in experiment [1] (setting [5]), 98.73% and 98.31%; in experiment [1] (setting [7]), 98.15% and 95.71%. Also, the Visual result in experiment [1] (setting [4]), in experiment [1] (setting [6]) and in experiment [1] (setting [8]) was “Active” in each case.
In the case of `CN(C)[C@@H]1C(O)=C(C(N)=O)C(=O)[C@@]2(O)C(O)=C3C(=O)c4c(O)cccc4[C@@](C)(O)[C@H]3C[C@@H]12` [Tetracycline], the Susceptible entry in the experiment on Burkholderia A396 (disk 30 μg) is recorded as “−”.
`C[C@@H]1[C@@H](c2ccc(Cl)cc2)SC(=O)N1C(=O)NC1CCCCC1` [hexythiazox]: the “No. egg TSM/leaflet” value in experiment [2] (Day 1 (pre-treatment sample)) is 2; in experiment [2] (Day 9) it was 8.5; in experiment [2] (Day 16) it was 15; in experiment [2] (Day 22), 17; in experiment [2] (Day 30), 22; in experiment [2] (Day 37) it was 71.5. Further, the “No. egg TSM/leaflet” value in experiment [2] (Day 44) came out at 128.5; in experiment [2] (Day 52), 281.5; in experiment [2] (Day 58), 393.5.
For Gentamicin, the Susceptible entry with Burkholderia A396 (disk 10 μg) is “−”.
On to Penicillin, for which the Susceptible result in the experiment with Burkholderia A396 (disk 10 μg) is “−”.
On to templazole B, for which the “% Control” value in experiment [1] (setting [3]) was −102.1%; in experiment [1] (setting [5]) it was 52.95%; in experiment [1] (setting [7]) it was −30.79%. The Visual entry in experiment [1] (setting [4]), in experiment [1] (setting [6]) and in experiment [1] (setting [8]) was “Not Active” in each case.

The values above are taken from patent US20140221207A1, “ISOLATED BACTERIAL STRAIN OF THE GENUS BURKHOLDERIA AND PESTICIDAL METABOLITES THEREFROM- FORMULATIONS AND USES” (MARRONE BIO INNOVATIONS, INC., priority 2011, published 2014).
